The text below walks through data of patent US9562031B1, “Phenethyldihydrobenzodioxolones and methods of use” (Sequoia Sciences, Inc., priority 2015, dated 2017).

As usually defined, the IC50 is the concentration that gives 50% inhibition.

Read-outs that look alike come from different tables or passages of the source.

In one test the test system is LOX-IMVI cells. Nature of the test: antiproliferation assay, LOX-IMVI. The class given is cell-based. Particulars: Homo sapiens. How it is done:
(§1) For the antiproliferation assay, NCI-H460 (large cell lung carcinoma) or M14 (amelanotic melanoma) cells were grown in RPMI-1640 with 10% FBS supplemented with L-glutamine and HEPES. Cells were seeded into 96-well plates at 5×10^2 to 5×10^4 cells/well and allowed to adhere overnight; the medium was then removed. A stock solution of test compound in DMSO was diluted in medium to generate a series of working solutions. Aliquots (100 μl) of the working solutions were then added to the appropriate test wells to expose cells to the final concentrations of compound in a total volume of 100 μl. Seven different concentrations were tested, with 2-5 wells per concentration. Camptothecin was used as a positive control; wells containing vehicle without compound were used as negative controls. Plates were kept for 72 h in a 37° C., 5% CO2 incubator. After incubation, viable cells were detected with the CELLTITER 96 AQueous Non-Radioactive Cell Proliferation Assay (Promega), and IC50 values were determined using GraphPad Prism 5 software.
(§2) Antiproliferation of several of the active compounds was tested against additional cell lines.

Another test has as its system OVCAR-3 cells. Nature of the test: antiproliferation assay, OVCAR-3. The class given is cell-based. Particulars: Homo sapiens. How it is done: as §1, §2
In another test the test system is NCI/ADR-RES cells. Nature of the test: antiproliferation assay, NCI/ADR-RES. The test is classed as cell-based. Particulars: Homo sapiens. How it is done: as §1, §2
(§3) Compound 4 was tested for antiproliferation activity against several paclitaxel-resistant human cancer cell lines.

Another test deals with K-562 cells. Nature of the test: antiproliferation assay, K-562. The class given is cell-based. Particulars: Homo sapiens, K562. How it is done:
as §1, §2

The subject of a further test is NCI-H187 cells. Nature of the test: antiproliferation assay, NCI-H187. The class given is cell-based. Particulars: Homo sapiens. The procedure:
as §1, §2

The subject of another test is MOLT-4 cells. Nature of the test: antiproliferation assay, MOLT-4. The test is classed as cell-based. Particulars: Homo sapiens. How it is done:
as §1, §2

The subject of test [1] is M14 (amelanotic melanoma) cells. Nature of the test: antiproliferation assay (72 h, CELLTITER 96), M14. The test is classed as cell-based, human. The conditions noted are these: Homo sapiens. Summed up: (§4)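 Human M14 melanoma and NCI-H460 lung carcinoma cells in RPMI-1640/10% FBS, seeded at 5×10^2–5×10^4 cells/well and adhered overnight, then exposed to seven compound concentrations for 72 h at 37 °C. Viable cells read by CellTiter 96 AQueous (MTS); IC50 = concentration giving 50% of maximal growth inhibition.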

A further test deals with MES-SA/Dx5 cells. Nature of the test: antiproliferation assay, MES-SA/Dx5. The test is classed as cell-based. Particulars: Homo sapiens. How it is done:
as §1, §2, §3

Test [2] deals with NCI-H460 (large cell lung carcinoma) cells. Nature of the test: antiproliferation assay (72 h, CELLTITER 96), NCI-H460. The conditions noted are these: Homo sapiens. The class given is cell-based, human. Summed up:
as §4

The next test has as its system OVCAR-4 cells. Nature of the test: antiproliferation assay, OVCAR-4. The class given is cell-based. The conditions noted are these: Homo sapiens. The procedure:
as §1, §2

The subject of the next test is DLD-1 cells. Nature of the test: antiproliferation assay, paclitaxel-resistant DLD-1. The test is classed as cell-based. Particulars: Homo sapiens. How it is done:
as §1, §3

The test system of another test is EKVX cells. Nature of the test: antiproliferation assay, paclitaxel-resistant EKVX. The class given is cell-based. Particulars: Homo sapiens. The procedure: as §1, §3
For the next test, the system named is TK-10 cells. Nature of the test: antiproliferation assay, paclitaxel-resistant TK-10. The class given is cell-based. The conditions noted are these: Homo sapiens. How it is done: as §1, §3
The test system of another test is UO-31 cells. Nature of the test: antiproliferation assay, paclitaxel-resistant UO-31. The test is classed as cell-based. The conditions noted are these: Homo sapiens. The procedure: as §1, §3
The subject of another test is HCT-15 cells. Nature of the test: antiproliferation assay, paclitaxel-resistant HCT-15. The test is classed as cell-based. Particulars: Homo sapiens. How it is done:
as §1, §3

Another test concerns ACHN cells. Nature of the test: antiproliferation assay, paclitaxel-resistant ACHN. The class given is cell-based. Particulars: Homo sapiens. The procedure:
as §1, §3

The next test has as its system SK-Mel-2 cells. Nature of the test: antiproliferation assay, SK-Mel-2. The conditions noted are these: Homo sapiens. The test is classed as cell-based. The procedure:
as §1, §2

Setting [3] is: NCI-H460, Table 3, read-out: NCI-H460 IC50.
Where [4] appears, read: NCI-H460, Table 4, read-out: NCI-H460 IC50.

`C=CC[C@H]1C[C@]2([C@@H](C)Cc3ccc(OC)cc3F)OCOC2=CC1=O` (relative stereo) [Compound 2, 6-allyl-7a-(1-(2-fluoro-4-methoxyphenyl)propan-2-yl)-7,7a-dihydrobenzo[d][1,3]dioxol-5(6H)-one]: the IC50 worked out at 0.056 µM in the test on LOX-IMVI cells; 0.06 µM in the test with OVCAR-3 cells; 0.045 µM in the test on NCI/ADR-RES cells; 0.076 µM in the test on K-562 cells; 0.091 µM in the test with NCI-H187 cells; 0.11 µM in the test on MOLT-4 cells. Also, the IC50 in test [1] (Table 3) was determined as 0.011 µM; in the test with MES-SA/Dx5 cells (MES-SA/Dx5, MES-SA/Dx5), 0.052 µM; in [2] (setting [3]) it was 0.088 µM; in test [2] (NCI-H460, as quoted in the pharmacokinetics text, read-out: IC50 against NCI-H460 human lung cancer cells), 0.09 µM.
For the compound `CCC[C@H]1C[C@]2([C@H](C)Cc3cc(F)c(OC)cc3F)OCOC2=CC1=O` [Compound 61, (6S,7aR)-7a-((R)-1-(2,5-difluoro-4-methoxyphenyl)propan-2-yl)-6-propyl-7,7a-dihydrobenzo[d][1,3]dioxol-5(6H)-one], the half-inhibitory concentration (IC50) with LOX-IMVI cells is 0.053 µM; in the test with NCI/ADR-RES cells, 0.063 µM; in the test on MOLT-4 cells, 0.12 µM; in the test with OVCAR-4 cells, 0.037 µM; in test [1] (Table 7), 0.017 µM; in the test with MES-SA/Dx5 cells (MES-SA/Dx5, MES-SA/Dx5), 0.084 µM. The half-inhibitory concentration (IC50) in test [2] (NCI-H460, Table 7, read-out: NCI-H460 IC50) is 0.14 µM.
Take `C=CC[C@H]1C[C@]2([C@H](C)Cc3cc(F)c(OC)cc3F)OCOC2=CC1=O` (relative stereo) [Compound 6, 6-allyl-7a-(1-(2,5-difluoro-4-methoxyphenyl)propan-2-yl)-7,7a-dihydrobenzo[d][1,3]dioxol-5(6H)-one]: the concentration for half-maximal inhibition (IC50) with LOX-IMVI cells was 0.018 µM; with OVCAR-3 cells, 0.038 µM; in the test on NCI/ADR-RES cells, 0.013 µM; in the test on K-562 cells, 0.028 µM; in the test with NCI-H187 cells it was 0.022 µM; in the test with MOLT-4 cells, 0.081 µM. Further, the IC50 in test [1] (Table 3) is 0.01 µM; in the test with MES-SA/Dx5 cells (MES-SA/Dx5, MES-SA/Dx5), 0.014 µM; in test [2] (setting [3]) it was 0.035 µM.
As for `CC(=O)O[C@H]1C(=O)[C@@]2(C)[C@H]([C@H](OC(=O)c3ccccc3)[C@]3(O)C[C@H](OC(=O)[C@H](O)[C@@H](NC(=O)c4ccccc4)c4ccccc4)C(C)=C1C3(C)C)[C@]1(OC(C)=O)CO[C@@H]1C[C@@H]2O` [paclitaxel, reference compound], the IC50 in the test on DLD-1 cells is 0.09 µM; with EKVX cells it was 0.15 µM; with TK-10 cells, 0.08 µM; in the test with UO-31 cells, 0.24 µM; in the test on NCI/ADR-RES cells (paclitaxel-resistant NCI/ADR-RES), 9.6 µM; with HCT-15 cells, 0.165 µM. Moreover, the 50% inhibitory concentration (IC50) was found to be 0.09 µM in the test on ACHN cells and 5 µM in the test on MES-SA/Dx5 cells (MES-SA/Dx5, paclitaxel-resistant MES-SA/Dx5).
On to `C=CC[C@H]1C[C@]2([C@@H](C)Cc3ccc(OC)c(C(N)=O)c3)OCOC2=CC1=O` [Compound 29, 5-((S)-2-((3aR,5S)-5-allyl-6-oxo-3a,4,5,6-tetrahydrobenzo[d][1,3]dioxol-3a-yl)propyl)-2-methoxybenzamide], for which the IC50 is 0.026 µM with LOX-IMVI cells; 0.0092 µM with SK-Mel-2 cells; 0.057 µM with OVCAR-3 cells; 0.044 µM with NCI/ADR-RES cells; 0.025 µM in the test on K-562 cells; 0.083 µM in the test on MOLT-4 cells. The IC50 was 0.012 µM in test [1] (Table 4); 0.031 µM with MES-SA/Dx5 cells (MES-SA/Dx5, MES-SA/Dx5); 0.066 µM in test [2] (setting [4]).
As to `C=CC[C@H]1C[C@]2([C@@H](C)Cc3ccc(N)c(F)c3)OCOC2=CC1=O` [Compound 42, (6S,7aR)-6-allyl-7a-((S)-1-(4-amino-3-fluorophenyl)propan-2-yl)-7,7a-dihydrobenzo[d][1,3]dioxol-5(6H)-one], the IC50 was 0.81 µM in test [1] (Table 5) and 2.5 µM in [2] (NCI-H460, Table 5, read-out: NCI-H460 IC50).
Regarding `C=CC[C@H]1C[C@]2([C@@H](C)Cc3ccc(OC)cc3)OCOC2=CC1=O` [Compound 25, (6S,7aR)-6-allyl-7a-((S)-1-(4-methoxyphenyl)propan-2-yl)-7,7a-dihydrobenzo[d][1,3]dioxol-5(6H)-one], the values for the IC50 in test [1] (Table 4) and in test [2] (setting [4]) were 0.061 µM and 0.088 µM, respectively.
